# Test results reported in patent US11931374B2, “Adenosine receptor modulators for the treatment of circadian rhythm disorders” (OXFORD UNIVERSITY INNOVATION LIMITED, priority 2016, dated 2024).
# How the values were obtained:
# [1] = system: Bmal1::Luc reporter U2OS cells; experiment: Bmal1::Luc reporter U2OS cells circadian rhythm; type: cell-based; details: 10 uM
# Per1 [2] = experiment: Per1 mRNA within the SCN after intraperitoneal injection; type: in vivo, mice; details: 4 h after intraperitoneal injection
# Text: SCN Tissue Collection: Animals were housed under a 12:12 LD cycle for 2 weeks with food and water ad libitum. Animals then received either a drug injection with a alteration in the light dark cycle as described in the experiment and at set points following drug administration were sacrificed by cervical dislocation. Sham-treated mice not given a light pulse were dissected at each time point. Brains were removed and placed into a brain matrix (Kent Scientific, Torrington CT, USA). Per2::Luc transgenic animals (as reported in Yoo et al, Proc Natl Acad Sci USA. 2004 Apr. 13; 101(15):5339-46) were obtained from Prof Joseph Takahashi, Northwestern University. […]
# (§1) Total RNA was extracted using the microRNeasy column method (Qiagen, Hilden, Germany). Quality and quantity of RNA were measured using an Agilent Bioanalyzer and a Nanodrop1000 (Thermo Fisher Scientific, Waltham, MA USA), respectively.
# RNA samples were prepared as described for microarray hybridisation. cDNA was synthesized with a qScript cDNA synthesis kit (Quanta Biosciences, Gaithersburg, MD), and quantitative PCR (qPCR) was conducted with Sybr green I and an SDS7700 thermal cycler (Applied Biosystems, Foster City, CA). Relative quantification of transcript levels was done as described previously (Peirson et al., Nucleic Acids Res. 2003 Jul. 15; 31(14):e73.). […]
# [3] = system: intracellular levels of cAMP; experiment: cAMP GloSensor assay in U2OS cells; type: cell-based
# Protocol: The GloSensor™ cAMP Assay (Promega) was used for detecting changes in the intracellular levels of cAMP. Initially, a Greiner Bio-One 96 Well Plate (white, TC treated) was seeded at 8000 cells per 100 μl well, as described above. After 24 hours, the cells were transfected with the pGloSensor™ cAMP Plasmid using the Viafect transfection reagent as above. Between 24 and 48 hours later, allowing for the accumulation of the biosensor, the medium in the 96 well plate was changed to C02-Independent Medium supplemented with GlutaMAX™ (Life Technologies), 10% fetal bovine serum and 2% GloSensor™ cAMP Reagent. The plate was then stood for 2 hours at room temperature to equilibrate. Following the incubation period, the cells were treated with relevant drugs and their luminescence values were measured after 20 minutes in the BMG FLUOstar OPTIMA Microplate Reader, with forskolin as a positive control, and DMSO as a negative control.
# [4] = system: Per2::Luc SCN slice cultures; experiment: Per2::Luc SCN slice culture; type: cell-based, mice; details: isolated Per2::Luc SCN slice cultures
# Text: SCN Tissue Collection: Animals were housed under a 12:12 LD cycle for 2 weeks with food and water ad libitum. Animals then received either a drug injection with a alteration in the light dark cycle as described in the experiment and at set points following drug administration were sacrificed by cervical dislocation. Sham-treated mice not given a light pulse were dissected at each time point. Brains were removed and placed into a brain matrix (Kent Scientific, Torrington CT, USA). Per2::Luc transgenic animals (as reported in Yoo et al, Proc Natl Acad Sci USA. 2004 Apr. 13; 101(15):5339-46) were obtained from Prof Joseph Takahashi, Northwestern University.
# For SCN slice culture: The brain was gently cut into a cube preserving the integrity of the SCN and cut into […] slices in ice-cold oxygenated Hanks Balanced Salt Solution containing 100 nM MK801 (Sigma-Aldrich). The SCN was microdissected and transferred to membrane filter (Millicell Cell Culture Insert, 30 mm, hydrophilic PTFE, 0.4 μm, Millipore) and cultured in 300 uL DMEM prepared as detailed in the Per2::Luc Assay.
# Per1 [5] = experiment: Per1 mRNA levels in U2OS cells by qPCR; type: cell-based
# Protocol: as §1
# (§2) RNA samples were prepared as described for microarray hybridisation. cDNA was synthesized with a qScript cDNA synthesis kit (Quanta Biosciences, Gaithersburg, MD), and quantitative PCR (qPCR) was conducted with Sybr green I and an SDS7700 thermal cycler (Applied Biosystems, Foster City, CA). Relative quantification of transcript levels was done as described previously (Peirson et al., Nucleic Acids Res. 2003 Jul. 15; 31(14):e73.). The geometric mean of a minimum of three housekeeping genes was used for normalization (Gapdh, ActB, GusB and Rps9 for example).
# (§3) Cells from the U2OS (HTB-96) line were obtained, tested and identified. The cells were cultured in T-75 flasks, in Dulbecco's modified Eagle medium (DMEM) supplemented with 10% foetal bovine serum (FBS) and 1% penicillin-streptomycin (P/S) at 37° C. in a humidified atmosphere at 5% CO2. The cells were subcultured every 2 to 4 days in a 1:2 to 1:6 ratio, in accordance with the ATCC recommendations. The cells were counted using a haemocytometer, and their viability in a culture was maintained at above 95%, measured with a Presto Blue exclusion assay according to the manufacturer's specifications. Cells were transfected with siRNAs (typically at 50 nM concentrations, sequences as previously listed), the CRE::Luc (pGL4.29[luc2P/CRE/Hygro] Vector, encoding Luc2P […] under the control of a strong cAMP response element (CRE) promoter containing 3 CRE elements within its sequence; Promega) reporter vector or cAMP-GLOSensor plasmid (Promega) as per manufacturer's instructions using either Lipofectamine RNAimax (Invitrogen) or Lipofectamine3000 (Invitrogen).
# [6] = system: STAR-PROM plasmid library; experiment: STAR-PROM transcription factor screening in U2OS cells; type: cell-based
# Protocol: This was conducted as previously reported in Gerber et al., Cell. […] Briefly, U2OS cells were cultured in 6-well plates and transfected with 1 ug of the STAR-PROM plasmid library (library structure as in above reference). RNA was extracted at set time points and sequenced for the barcoded luciferase constructs and analysed with Galaxy (https://use.galaxy.org).
# Per2 = Per2 mRNA levels in U2OS cells by qPCR; type: cell-based
# Protocol: as §1, §2, §3
# [7] = U2OS cells, qPCR, concentration not given
compound,measurement,setting,value
"Nc1nc(-c2ccccc2)c2c(n1)-c1cc(OCCN3CCOCC3)ccc1C2=O [JNJ40255293, 2-amino-8-[2-(4-morpholinyl)ethoxy]-4-phenyl-5H-indeno[1,2-d]pyrimidin-5-one]",period length,[1],increases in period length
same,rhythms after washout of drug,[1],revert to normal rhythms after washout of drug
same,Per1 mRNA levels within the SCN,Per1 [2],increase
same,cAMP levels,[3],does not elevate cAMP levels
same,increase in cAMP,[3]; 30 uM,50%
same,period length,[4],increased period length
same,Per1 transcription,Per1 [5]; 4 h post-drug treatment,significantly increased
same,Per1 mRNA,"Per1 [5]; U2OS cell cultures, 10 uM",Robust increases
same,Per1 mRNA levels,"Per1 [5]; U2OS cells, 30 uM",elevated
same,Per1 mRNA levels / expression,Per1 [5]; [7],induce the expression of Per1 and Per2
same,clones with significantly increased reporter signal,"[6]; BC-STARPROM, 30 uM",8 clones
same,response of clone3 reporter,[6]; isolated clone3,responded
same,Per2 transcription,Per2; 4 h post-drug treatment,significantly increased
same,Per2 mRNA,"Per2; U2OS cell cultures, 10 uM",Robust increases
same,Per2 mRNA levels,"Per2; U2OS cells, 30 uM",elevated
same,Per2 mRNA levels / expression,Per2; [7],induce the expression of Per1 and Per2
